Assay results taken from patent US20090270440A1, “BIOAVAILABILITY OF ACTIVE SUBSTANCES HAVING AN AMIDINE FUNCTION IN MEDICAMENTS” (Drite Patentportfolio Beteilligungsgesellschaft mbH & Co. KG, priority 2006, published 2009).

Legend:
[1] = Oral bioavailability and metabolism study of N,N′-dihydroxybenzamidine in pigs (plasma levels by HPLC); type: in vivo
Procedure: Metabolism of N,N′-dihydroxybenzamidine to benzamidine in vivo proceeds in the following way:
In order to be able to ascertain the exact dosage of the substances, the animals were weighed once a week. The daily weight gain was calculated from the data. The substances to be administered orally were mixed into the moistened, ground feed concentrate. The substances given intravenously were dissolved in 0.9% NaCl solution in order to avoid hemolysis.
Directly before injection into the indwelling vein catheter, the solution was filtered in order to avoid induction of thrombus formation by any undissolved portions. The injection was followed by flushing with at least 10 ml of 0.9% NaCl solution again. The substance was administered in the morning on each occasion. A washout period took place the next day on each occasion in order to ensure complete excretion of the medicinal substance.
The orally administered doses of N,N′-dihydroxy-benzamidine were in each case 10 mg/kg of body weight (BW). The concentration of the substances administered intravenously as bolus was 2 mg/kg BW. Benzamidine and N,N′-dihydroxybenzamidine were likewise administered intravenously. The samples were taken at previously fixed times. The experimental period for one condition lasted one day. The blood samples were obtained over a period of 24 hours after administration of the substance. After oral administration, the samples were taken after 0, 30, 60, 90, 120, 150, 180, 240, 360, 480, 720 and 1440 minutes. After intravenous administration, an additional sample was taken after 5 and 15 minutes. The whole blood obtained was transferred into heparin tubes and centrifuged (4° C., 10 min, 1500 g). After centrifugation, about 4 ml of plasma were removed as supernatant, pipetted into Eppendorf vessels and frozen at −80° C. The plasma samples were slowly thawed and then centrifuged at 7000 rpm for 3 minutes, worked up by solid-phase extraction and passed on for HPLC.

[2] = literature value (Clement, Lopian 2003); cited from earlier work

| SMILES | Reduction of prodrug to the active form (amidine) in the blood ([1]; after oral administration) | Metabolite benzamide oxime in plasma after injection ([1]; i.v. 2 mg/kg BW) | Reduction of prodrug to the amidine after injection ([1]; i.v. 2 mg/kg BW) | Absorption after oral administration ([1]; oral 10 mg/kg BW) | Oral bioavailability [2] [%] |
| --- | --- | --- | --- | --- | --- |
| O/N=C(/NO)c1ccccc1 [N,N′-dihydroxybenzamidine] | rapidly reduced to the active form | benzamide oxime also being detectable | rapidly reduced to the amidine | almost completely absorbed |  |
| N=C(N)c1ccc(CNC(=O)[C@@H]2CCN2C(=O)[C@H](NCC(=O)O)C2CCCCC2)cc1 [melagatran] |  |  |  |  | 7 |
| CCOC(=O)CN[C@@H](C(=O)N1CC[C@H]1C(=O)NCc1ccc(/C(N)=N\O)cc1)C1CCCCC1 [ximelagatran] |  |  |  |  | 14 |
